system: slow reacting substance of anaphylaxis (SRS-A); assay: Inhibition of SRS-A induced contraction of guinea pig ileum; format: cell-based; conditions: Cavia porcellus, 0.25 h; compound concentration 5 × 10^-5 M; partially purified SRS-A from guinea pig lung at 40 μg/ml; 15 minute incubation; read-out: Percent Antagonism
Procedure: The SRS-A antagonist activity of the compounds of this invention is measured by the ability of the active medicament to inhibit SRS-A induced contraction of guinea pig ileum. In this test system, sections of ileum are resected from guinea pigs and placed in 5 ml. tissue baths containing a modified Tyrode's solution. One end of the tissue is fixed to a glass tissue holder, the other is connected to a force-displacement transducer and the tissue is placed under a tension of 500 mg. Isometric tissue contractions are recorded on a six channel polygraph. Baths are constantly aerated with 95% O2 -5% CO2. After a 20 minute stabilization period a concentration of the appropriate agonist which provides a contraction height of 60-80% of the maximum obtainable to that agonist (as determined from full sequential concentration--response curves in separate experiments) is added to the tissue bath and the response recorded. The procedure is repeated until reproducible responses are obtained. For most agonists, two applications in rapid succession, followed 15 minutes later by a third, is sufficient to establish reproducibility. Experimental tissues are incubated with the selected concentration of the test compounds for 15 minutes. Experimental and control tissues are subjected to 5 bath changes during the incubation interval. Changes in bath fluid during the incubation period are helpful in insuring the reproducibility of tissue responses to the agonist. The same concentration of the agonist is reapplied in the presence of the test compound and the response registered and compared with controls. Percent inhibition produced by the test compound is calculated by subtracting the mean percentage change in control tissue from the mean percentage change in tissues exposed to the test compound. Additional compounds are then evaluated as long as the tissue remains reproducibly responsive to the agonist. Six tissues obtained from 6 animals are used simultaneously--3 controls and 3 experimental.
The compounds of this invention tested at concentrations of from 5×10^-5 to 5×10^-6 produce marked antagonism of partially purified slow reacting substance of anaphylaxis obtained from guinea pig lung. The agonist is employed at a concentration of 40 μg/ml. Representative of this effect, tabulated below are a number of the claimed compounds and percent antagonism of SRS-A at various compound concentrations.

SMILES | inhibition at 50 µM
O=S(=O)(NS(=O)(=O)N1CCc2cc(Cl)ccc2C1)N1CCc2cc(Cl)ccc2C1 [H 6-Cl H H] | 84.2%

same assay, conditions: Cavia porcellus, 0.25 h; compound concentration 5 × 10^-6 M; partially purified SRS-A from guinea pig lung at 40 μg/ml; 15 minute incubation; read-out: Percent Antagonism

SMILES | inhibition at 5 µM
O=S(=O)(NS(=O)(=O)N1CCc2c(Br)ccc(Br)c2C1)N1CCc2c(Br)ccc(Br)c2C1 [8-Br 5-Br H H] | 22.9%
Cc1ccc2c(c1Cl)CN(S(=O)(=O)NS(=O)(=O)N1CCc3ccc(C)c(Cl)c3C1)CC2 [7-CH3 8-Cl H H] | 49.9%
O=S(=O)(NS(=O)(=O)N1CCc2cc(Cl)c(Cl)cc2C1)N1CCc2cc(Cl)c(Cl)cc2C1 [7-Cl 6-Cl H H] | 56.3%
O=S(=O)(NS(=O)(=O)N1CCc2ccc(Cl)c(SC(F)(F)C(F)F)c2C1)N1CCc2ccc(Cl)c(SC(F)(F)C(F)F)c2C1 [7-Cl 8-SCF2 CF2 H H H] | 36.2%
CC(C)C1c2c(ccc(Cl)c2Cl)CCN1S(=O)(=O)NS(=O)(=O)N1CCc2ccc(Cl)c(Cl)c2C1C(C)C (centres unmarked) [7-Cl 8-Cl CH(CH3)2 H] | 63%
O=S(=O)(NS(=O)(=O)N1CCc2ccc(Cl)c(Cl)c2C1)N1CCc2ccc(Cl)c(Cl)c2C1 [7-Cl 8-Cl H H, N,N'-bis(7,8-dichloro-1,2,3,4,-tetrahydroisoquinolyl)disulfonylimide] | 42%
CC1Cc2ccc(Cl)c(Cl)c2CN1S(=O)(=O)NS(=O)(=O)N1Cc2c(ccc(Cl)c2Cl)CC1C (centres unmarked) [7-Cl 8-Cl H CH3] | 52.5%
O=S(=O)(NS(=O)(=O)N1CCc2ccc(Cl)c(Cl)c2C1C1CC1)N1CCc2ccc(Cl)c(Cl)c2C1C1CC1 (centres unmarked) [7-Cl 8-Cl [drawing 3] H] | 60%
O=S(=O)(NS(=O)(=O)N1CCc2c(Br)cccc2C1)N1CCc2c(Br)cccc2C1 [H 5-Br H H] | 45.2%
O=S(=O)(NS(=O)(=O)N1CCc2ccc(C(F)(F)F)c(C(F)(F)F)c2C1)N1CCc2ccc(C(F)(F)F)c(C(F)(F)F)c2C1 [7-CF3 8-CF3 H H] | 26.8%

Reference: patent publication US4317826A, “N,N'-Bis[substituted-1,2,3,4 tetrahydroisoquinolyl]disulfonylimides and antiallergic compositions and method of use” (SmithKline Corporation, priority 1980, dated 1982)
